# Target: c-MET (Homo sapiens, UniProt P08581)
# Test: Ki determination for the inhibition of c-MET (standard radiometric 33P-ATP kinase assay, polyE4Y substrate)
# Type: biochemical
# Conditions: 1.0 nM c-Met, 35 μM ATP, 0.5 mg/mL polyE4Y, 20 min; competitive tight-binding fit
# Summary of the method: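 Radiometric assay of 33P transfer from 33P-ATP (35 μM) to polyE4Y (0.5 mg/mL) by 1.0 nM c-Met in 100 mM HEPES pH 7.5, 10 mM MgCl2, 25 mM NaCl, 0.01% BSA, 1 mM DTT. TCA-quenched after 20 min, filter-captured, scintillation-counted; Ki fitted to a competitive tight-binding model.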
# c-MET, sequence (P08581 25-1390): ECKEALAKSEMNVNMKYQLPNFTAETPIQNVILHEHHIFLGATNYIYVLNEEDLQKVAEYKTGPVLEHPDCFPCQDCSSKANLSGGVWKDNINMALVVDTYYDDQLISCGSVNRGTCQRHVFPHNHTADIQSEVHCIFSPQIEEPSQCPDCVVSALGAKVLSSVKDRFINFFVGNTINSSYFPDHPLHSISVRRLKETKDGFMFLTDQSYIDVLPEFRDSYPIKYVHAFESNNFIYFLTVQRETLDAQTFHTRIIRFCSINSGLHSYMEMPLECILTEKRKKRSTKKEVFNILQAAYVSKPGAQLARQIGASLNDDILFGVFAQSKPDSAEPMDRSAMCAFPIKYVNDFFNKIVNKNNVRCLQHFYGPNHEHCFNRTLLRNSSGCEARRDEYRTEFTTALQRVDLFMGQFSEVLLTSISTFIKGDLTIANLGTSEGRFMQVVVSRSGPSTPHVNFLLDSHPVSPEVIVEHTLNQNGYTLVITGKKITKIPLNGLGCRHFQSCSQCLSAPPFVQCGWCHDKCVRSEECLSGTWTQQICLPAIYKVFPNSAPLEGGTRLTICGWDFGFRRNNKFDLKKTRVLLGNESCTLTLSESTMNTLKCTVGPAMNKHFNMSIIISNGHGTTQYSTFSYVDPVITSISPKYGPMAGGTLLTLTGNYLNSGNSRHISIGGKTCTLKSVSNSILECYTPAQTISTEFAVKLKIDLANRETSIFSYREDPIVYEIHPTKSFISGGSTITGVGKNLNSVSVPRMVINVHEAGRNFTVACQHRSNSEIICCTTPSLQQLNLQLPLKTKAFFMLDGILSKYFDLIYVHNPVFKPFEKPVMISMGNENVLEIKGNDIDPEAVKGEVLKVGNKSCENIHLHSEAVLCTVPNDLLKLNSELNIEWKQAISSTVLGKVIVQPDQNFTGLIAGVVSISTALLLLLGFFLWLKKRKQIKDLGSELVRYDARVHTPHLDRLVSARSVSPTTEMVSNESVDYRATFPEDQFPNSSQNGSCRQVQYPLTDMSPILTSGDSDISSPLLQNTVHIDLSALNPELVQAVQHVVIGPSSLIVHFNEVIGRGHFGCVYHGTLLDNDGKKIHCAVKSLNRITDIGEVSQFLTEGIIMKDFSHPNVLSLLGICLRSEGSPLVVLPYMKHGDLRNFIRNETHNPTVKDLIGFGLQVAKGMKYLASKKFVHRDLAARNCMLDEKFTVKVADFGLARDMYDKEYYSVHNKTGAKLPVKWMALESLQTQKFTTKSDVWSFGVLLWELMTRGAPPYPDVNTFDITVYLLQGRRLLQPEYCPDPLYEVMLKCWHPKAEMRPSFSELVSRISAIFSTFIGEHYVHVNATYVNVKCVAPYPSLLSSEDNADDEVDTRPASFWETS
row,Ki,SMILES
1,≤ 100 nM,Nc1ncc(-c2cnn([C@@H]3CCCNC3)c2)nc1-c1nnnn1-c1cccc(F)c1F [I-A-659]
2,≤ 100 nM,Nc1ncc(-c2cnn([C@@H]3CCNC3)c2)nc1-c1nnnn1-c1cccc(F)c1F [I-A-660]
3,100 to 1000 nM,CN(C)Cc1ccc(-c2cnc(N)c(-c3nn(C4CCCCC4)cc3-c3cccc(Cl)c3Cl)c2)cc1 [I-B-11]
4,100 to 1000 nM,CN(C)Cc1ccc(-c2cnc(N)c(-c3nn(CCO)cc3-c3cccc(Cl)c3Cl)c2)cc1 [I-B-14]
5,100 to 1000 nM,Cn1cc(-c2cccc(Cl)c2Cl)c(-c2cc(-c3cccnc3)cnc2N)n1 [I-B-16]
6,100 to 1000 nM,Cn1cc(-c2cccc(Cl)c2Cl)c(-c2cc(-c3ccc(N4CCCC4)nc3)cnc2N)n1 [I-B-20]
7,100 to 1000 nM,CN1CCN(c2ccc(-c3cnc(N)c(-c4nn(C)cc4-c4cccc(Cl)c4Cl)c3)cc2)CC1 [I-B-21]
8,≤ 100 nM,Cn1cc(-c2cccc(Cl)c2Cl)c(-c2cc(-c3cnn(C4CCNCC4)c3)cnc2N)n1 [I-B-22]
9,100 to 1000 nM,Nc1ncc(-c2cccnc2)cc1-c1nnsc1-c1cccc(Cl)c1Cl [I-C-1]
10,≤ 100 nM,CN1CCN(c2ccc(-c3cnc(N)c(-c4nnsc4-c4cccc(Cl)c4Cl)c3)cc2)CC1 [I-C-3]
11,100 to 1000 nM,Nc1ncc(-c2ccc(N3CCCC3)nc2)cc1-c1nnsc1-c1cccc(Cl)c1Cl [I-C-4]
12,≤ 100 nM,CN(C)Cc1ccc(-c2cnc(N)c(-c3nnsc3-c3cccc(Cl)c3Cl)c2)cc1 [I-C-5]
13,≤ 100 nM,Cc1nc(-c2cc(-c3cccnc3)cnc2N)c(-c2cccc(Cl)c2Cl)o1 [I-C-6]
14,100 to 1000 nM,"Nc1ncc(-c2cccnc2)cc1-c1ncsc1-c1cccc(Cl)c1Cl [I-C-8, 3-(5-(2,3-Dichlorophenyl)thiazol-4-yl)-5-(pyridin-3-yl)pyridin-2-amine]"
15,100 to 1000 nM,CN1CCN(c2ccc(-c3cnc(N)c(-c4ncsc4-c4cccc(Cl)c4Cl)c3)cc2)CC1 [I-C-11]
16,≤ 100 nM,Nc1ncc(-c2cccnc2)cc1-c1nc2cnccc2n1-c1cccc(F)c1F [I-D-1]
17,≤ 100 nM,CN1CCN(c2ccc(-c3cnc(N)c(-c4nc5cnccc5n4-c4cccc(F)c4F)c3)cc2)CC1 [I-D-2]
18,≤ 100 nM,Nc1ncc(-c2ccc(CN3CCCC3)cc2)cc1-c1nc2cnccc2n1-c1cccc(F)c1F [I-D-3]
19,≤ 100 nM,CN(C)Cc1ccc(-c2cnc(N)c(-c3nc4cnccc4n3-c3cccc(F)c3F)c2)cc1 [I-D-4]
20,≤ 100 nM,CN1CCN(Cc2ccc(-c3cnc(N)c(-c4nc5cnccc5n4-c4cccc(F)c4F)c3)cc2)CC1 [I-D-5]
21,≤ 100 nM,CC(=O)N1CCN(Cc2ccc(-c3cnc(N)c(-c4nc5cnccc5n4-c4cccc(F)c4F)c3)cc2)CC1 [I-D-6]

row,Ki,SMILES
1,≤ 100 nM,Nc1ncc(-c2cnn(C3CCNCC3)c2)cc1-c1nc2cccnc2n1-c1cccc(F)c1F [I-D-7]
2,≤ 100 nM,Nc1ncc(-c2cnn(CCO)c2)cc1-c1nc2cnccc2n1-c1cccc(F)c1F [I-D-8]
3,≤ 100 nM,CN(C)CCn1cc(-c2cnc(N)c(-c3nc4cnccc4n3-c3cccc(F)c3F)c2)cn1 [I-D-9]
4,≤ 100 nM,Nc1ncc(-c2cnn(CC(O)CO)c2)cc1-c1nc2cnccc2n1-c1cccc(F)c1F [I-D-10]
5,≤ 100 nM,Nc1ncc(-c2cnn(CCN3CCCC3)c2)cc1-c1nc2cnccc2n1-c1cccc(F)c1F [I-D-11]
6,≤ 100 nM,CC(=O)Nc1cccc(-c2cnc(N)c(-c3nc4cnccc4n3-c3cccc(F)c3F)c2)c1 [I-D-12]
7,≤ 100 nM,CC(=O)Nc1ccc(-c2cnc(N)c(-c3nc4cnccc4n3-c3cccc(F)c3F)c2)cc1 [I-D-13]
8,100 to 1000 nM,Nc1ncc(-c2ccc(CN3CCCC3)cc2)cc1-c1nc2cccnc2n1-c1cccc(Cl)c1F [I-D-14]
9,100 to 1000 nM,Nc1ncc(-c2cnn(C3CCNCC3)c2)cc1-c1nc2cccnc2n1-c1cccc(Cl)c1F [I-D-15]
10,100 to 1000 nM,Nc1ncc(-c2ccc(N3CCNCC3)cc2)cc1-c1nc2cccnc2n1-c1cccc(Cl)c1F [I-D-16]
11,100 to 1000 nM,CN1CCN(c2ccc(-c3cnc(N)c(-c4nc5cccnc5n4-c4cccc(Cl)c4F)c3)cc2)CC1 [I-D-17]
12,≤ 100 nM,Nc1ncc(-c2cnn(C3CCNCC3)c2)cc1-c1nc2cc(F)ccc2n1-c1cccc(Cl)c1F [I-D-19]
13,100 to 1000 nM,Nc1ncc(-c2ccc(N3CCNCC3)cc2)cc1-c1nc2cc(F)ccc2n1-c1cccc(Cl)c1F [I-D-20]
14,100 to 1000 nM,CN1CCN(c2ccc(-c3cnc(N)c(-c4nc5cc(F)ccc5n4-c4cccc(Cl)c4F)c3)cc2)CC1 [I-D-21]
15,100 to 1000 nM,CN(C)Cc1ccc(-c2cnc(N)c(-c3nc4cc(F)ccc4n3-c3cccc(Cl)c3F)c2)cc1 [I-D-22]
16,≤ 100 nM,Nc1ncc(-c2ccc(N3CCNCC3)cc2)cc1-c1nc2cnccc2n1-c1cccc(F)c1F [I-D-23]
17,100 to 1000 nM,Nc1ncc(-c2cnn(C3CCNCC3)c2)cc1-n1nnnc1-c1cccc(F)c1F [I-E-1]
18,100 to 1000 nM,Nc1ncc(-c2cc3c(s2)CCNCC3)cc1-n1nnnc1-c1cccc(F)c1F [I-E-2]
19,100 to 1000 nM,Nc1ncc(-c2ccc(C3CCNCC3)cc2)cc1-n1nnnc1-c1cccc(F)c1F [I-E-3]
20,100 to 1000 nM,Nc1ncc(-c2ccc(CN3CCCC3)cc2)cc1-n1nnnc1-c1cccc(F)c1F [I-E-4]
21,100 to 1000 nM,CC(=O)Nc1cccc(-c2cnc(N)c(-n3nnnc3-c3cccc(F)c3F)c2)c1 [I-E-5]
